Measurements taken from US7687603B2, “Guanidinium delivery carriers” (priority 2005, dated 2010).
Numbered stars: 1 amine (or outer) side, 2 acyl side, 3 side chain; on linkers, the order of the positions; unused ones are H or OH. Side chains are listed from the residue outwards. Peptide text beside a SMILES is read from it. * marks the point of attachment. Doxorubicin(3'-N) = COc1cccc2c1C(=O)c1c(O)c3c(c(O)c1C2=O)C[C@@](O)(C(=O)CO)C[C@@H]3O[C@H]1C[C@H](N*)[C@H](O)[C@H](C)O1; Suc = O=C(CCC(=O)[*:2])[*:1]

Tests used:
PC-3 cells = experiment: Cytotoxicity assay, live/dead cell staining; assay type: cell-based
Experimental: Prostate cancer cell lines (PC-3 cells) were maintained in 12-F medium containing 10% fetal bovine serum, 100 units/mL penicillin and 100 μg/mL streptomycin at 37° C. under 5% CO2 and 100% humid condition. To avoid confluency due to the short doubling time (˜20 hrs), the cells were split every 3-4 days.
The PC-3 cells were plated in 6-well tissue culture plates (5×10^5 cells/well) and incubated overnight in 12-F medium with 10% FBS. For each well, an aliquot of 200 μl Doxorubicin-protein transduction domain (DOX-PTD) solution at same mole concentration (0.2 mg/per well) was added. The cells were then incubated at 37° C. in 5% CO2 for 2 hrs.
After incubation, the live and dead cells were counted using cell staining analysis according to the protocol provided by the manufacturer. The dead cells stain red while the live cells stain green. The green and red fluorescent signals from the cells were observed under a fluorescent microscope (Olympus, filter 570 nm-605). The percentage of live cells in the cultures was determined from counts of three fields.

MTT cytotoxicity study = assay type: cell-based; details: mammalian cells, FIG. 13, read-out: cells survived (viability)
Experimental: (§1) Cytotoxicity of PTD carriers were evaluated in mammalian cells using 3-[4,5 dimethylthiazol-2-yl]-2,5-diphenyltetrazolium bromide (MTT). After inducing cytotoxicity (˜4 hrs) by routine methods, 10 μl of MTT solution (5.0 mg/ml in PBS, Sigma) was added to each well, and incubated at 37° C. for 3 hrs. The medium was then removed and 200 μl dimethyl sulfoxide (DMSO) was added into each well to dissolve the formazan crystals produced by living cells. The absorbance of the solution was measured at 570 nm. Cell viabilities were calculated using the equation: Viability (%)={Abs570 (sample)/Abs570 control}. A control reaction was run under the same conditions except for the addition of Dox-PTD.

mammalian cells = experiment: MTT cytotoxicity study; assay type: cell-based
Experimental: as §1

[1] = test system: xenografs of human PC-3 prostate cancer; experiment: DOX-PTD anti-tumor treatment in vivo study, tumor size; design: species or system nu/nu athymic mice; details: intra-tumor administration, Dosedox=0.2 mg/kg, FIGS. 14 and 15
Experimental: (§2) Male nu/nu athymic mice (6-7 weeks old; 22-25 g; available from Charles River Laboratories) were inoculated subcutaneously on the right flank with 1.1×10^6 Hela and PC-3 cells to obtain xenografs of human PC-3 prostate cancer.
(§3) Approximately 4 days after inoculation, the four groups of five mice were administered a solution containing saline, doxorubicin, PTD, or DOX-PTD (e.g., 0.103×10^−4 mol) via intra-tumor injection or intravenously. The solution was administered once a week until the total volume administered equaled ˜50 μL/mouse. Size measurements of the tumor and the body weight of the mice were taken every other day. A saline solution was used as a control.

[2] = Body weight changes after intra-tumor administration; assay type: in vivo, nu/nu athymic mice; details: 21 days after intra-tumor administration
Experimental: as §2, §3

Hela 705 cells = experiment: Transduction assay (in vitro), fluorescence microscope; assay type: cell-based; details: 30 min at 37° C., Streptavidin-FITC, FIG. 4
Experimental: The transduction efficiency of compound 9 from Example 1 and compound 11 from Example 2 were analyzed. Hela 705 cells were seeded at 1.5×10^4/well in 96-well plate and cultured overnight (about 70% confluenced). The media was discarded and the cells rinsed with PBS. Biotin-labeled test compounds (dissolved in PBS, pH: 7.4) were applied to culture(s) and incubated for 30 min at 37° C. The media was carefully discarded and the cells rinsed with PBS. The cells were fixed in freshly prepared 4% paraformaldehyde for 10 min at 4° C. The cells were rinsed and incubated with a blocking reagent (10% BSA containing 0.5% Triton X-100 in PBS) for 30 min at 37° C. The cells were again rinsed with PBS and incubated with Streptavidin-FITC for 30 min at room temperature. The cells were then rinsed with PBS and observed under fluorescence microscope.
The transduction activity of the disulfide linked HA compounds 13 and 14 from Example 4 were tested on Hela 705 cells following the procedure as mentioned above. FITC conjugated anti-HA antibody was applied for visualization.

Mouse skin tissue = experiment: In vivo transdermal delivery assay; details: nude mice skin, 100 μl of 1 mM in PBS, 30 min, FIG. 9
Experimental: Compounds 9 and 11 from Examples 1 and 2 were tested in vivo. In vivo evaluation was conducted with a transdermal delivery assay on nude mice (NU/NU ♀). Nude mice (female, 6 weeks old, from Charles River) were anesthetized with 50 μl cocktail of Ketaset 25 mg/ml, Xylazine 5 mg/ml (i.m.). The skin was wiped with saline and a 100 μl solution of the test compounds (1 mM in PBS) was applied. A plastic ring was used to isolate the test solution and vaseline was rubbed outside of the ring. After 30 min incubation, the animal was sacrificed under deep anesthesia and the skin was removed. Mouse skin tissue was immediately embedded in OTC medium, cut into 5 μm on a cryostat and collected on slides, and stored at −70° C. The tissue was fixed in freshly prepared 4% paraformaldehyde in PBS for 10 min at 4° C. The tissue was then rinsed in PBS 2×5 min and incubated with 10% BSA containing 0.5% Triton X-100 in PBS for 30 min at 37° C. The samples were incubated with Streptavidin-FITC (diluted in 1% BSA containing 0.05% Triton X-100 in PBS) overnight at 4° C. […] The samples were rinsed twice in PBS 2×5 min and tap water and mounted with anti-fading mounting medium and observed under fluorescence microscope or confocal imaging analysis.

B16F0 cells [3] = experiment: IC50% study; assay type: cell-based
Experimental: B16F0 cells (obtained from American Type Culture Collection, ATCC) were split into 96 well plates and incubated at 37° C. under 5% CO2. After 24 hours, BMPC-Pt was added to each well. The fluorescence of each well was measured using two wavelength filters (450 nm and 528 nm) before and several times after BMPC-Pt was added (24, 48, and 72 hours). Using measurements, the fluorescence intensity net increase ratio was calculated and the results are summarized in Table 3 and shown in FIGS. 19 and 20.

B16F0 cells [4] = experiment: IC50% study; assay type: cell-based; details: 96 hours

SMILES | body weight difference between groups [2] | IC50 (B16F0 cells [3]; 24 hours) [µM] | IC50 (B16F0 cells [3]; 48 hours) [µM] | IC50 (B16F0 cells [3]; 72 hours) [µM] | IC50 (B16F0 cells [4]) [µM] | further results
COc1cccc2c1C(=O)c1c(O)c3c(c(O)c1C2=O)C[C@@](O)(C(=O)CO)C[C@@H]3O[C@H]1C[C@H](NC(=O)CCC(=O)N[C@@H](CCCNC(=N)N)C(=O)N[C@@H](CCCNC(=N)N)C(=O)NCCCC[C@H](NC(=O)[C@H](CCCNC(=N)N)NC(=O)[C@H](CCCNC(=N)N)NC(C)=O)C(=O)N[C@@H](CCCNC(=N)N)C(=O)N[C@@H](CCCNC(=N)N)C(=O)N[C@@H](CCCNC(=N)N)C(=O)N[C@@H](CCCNC(=N)N)C(N)=O)[C@H](O)[C@H](C)O1 [DOX-PTD] (Ac-RRK([Arg-Arg-Suc-Doxorubicin(3'-N)])RRRR-NH2) | no significant difference | – | – | – | – | number of live cells (PC-3 cells; 0.2 mg/per well, 2 hrs, FIGS. 11 and 12): less than with Dox alone; penetration into the PC-3 cells (PC-3 cells; inferred from live cell counts): greater penetration into the PC-3 cells compared to Dox alone; viability (MTT cytotoxicity study): < 40%; cytotoxicity (mammalian cells): extremely high; tumor size [1]: increased in size less than the tumor injected with Dox alone
N=C(N)NCCCC(N)C(=O)NC(CCCNC(=N)N)C(=O)NC(CCCNC(=N)N)C(=O)NCCCCC(NC(=O)C(CCCNC(=N)N)NC(=O)C(CCCNC(=N)N)NC(=O)C(N)CCCNC(=N)N)C(=O)NCCCCC(NC(=O)C(CCCNC(=N)N)NC(=O)C(CCCNC(=N)N)NC(=O)CCCC[C@@H]1SC[C@@H]2NC(=O)N[C@@H]21)C(N)=O (some centres unmarked) [compound 11] | – | – | – | – | – | transduction efficiency compared to vehicle (PBS) (Hela 705 cells): dramatic transduction efficiency; transdermal delivery efficiency compared to vehicle (PBS) (Mouse skin tissue): dramatic transdermal delivery efficiency
COc1cccc2c1C(=O)c1c(O)c3c(c(O)c1C2=O)C[C@@](O)(C(=O)CO)C[C@@H]3O[C@H]1C[C@H](N)[C@H](O)[C@H](C)O1 [DOX, doxorubicin, reference compound] | no significant difference | – | – | – | – | –
N.N.O=C([O-])C1(C(=O)[O-])CCC1.[Pt+2] [Carboplatin, reference compound] | – | 110 | 36.5 | 24.5 | 4.5 | –
CC(=O)N[C@@H](CCCNC(=N)N)C(=O)N[C@@H](CCCNC(=N)N)C(=O)N[C@@H](CCCCNC(=O)[C@H](CCCNC(=N)N)NC(=O)[C@H](CCCNC(=N)N)NC(=O)CCC(=O)NC1CC(=O)[O][Pt]2([NH]C3CCCCC3[NH]2)[O]C1=O)C(=O)N[C@@H](CCCNC(=N)N)C(=O)N[C@@H](CCCNC(=N)N)C(=O)N[C@@H](CCCNC(=N)N)C(=O)N[C@@H](CCCNC(=N)N)C(N)=O (some centres unmarked) [BMPC-Pt] | – | 128 | 51.6 | 22.3 | 12.5 | –
